This is an account of results in PMC9865193, “Improvement of the Chemical Reactivity of Michael Acceptor of Ethacrynic Acid Correlates with Antiproliferative Activities” (Molecules, 2023).

A value given as a limit tells only on which side of the number the result lay.

The subject of one assay is HL60 cells. Kind of assay: MTS cell growth inhibition assay, HL60. The class given is cell-based, human. To be noted: for IC50: Homo sapiens, HL-60, read-out: IC50 antiproliferative activity against HL60; for Selectivity index (SI) MRC5/HL60: ratio of IC50 MRC5/IC50 HL60. From the text: Based on a multiple target assay, all the prepared compounds (6–10) were first evaluated against HL60 leukemia cells to assess their in vitro antiproliferative activities. As mentioned in the Table 1, the obtained results were expressed as half-maximal inhibitory concentration (IC50) values with the average of at least three independent experiments and are compared to EA.
(§1) All cancer cell lines (HCT116, A549, MCF7, PC3, U87-MG, SKOV3, and MRC5) were obtained from the European Collection of Cell Culture (ECACC, Salisbury, UK) or from the American Type Culture Collection (Rockville, MD, USA) and were cultured according to the supplier’s instructions. Human HCT-116 colorectal carcinoma, MCF7 breast adenocarcinoma, PC3 prostate adenocarcinoma, A549 lung carcinoma, and SK-OV-3 ovary carcinoma were grown in Gibco McCoy’s 5A supplemented with 10% fetal calf serum (FCS) and 1% glutamine. HL60 myelogenous leukemia cells were grown in RPMI 1640 supplemented with 10% fetal calf serum (FCS) and 1% glutamine. U87-MG glioblastoma and human MRC-5 cells were grown in Gibco medium DMEM supplemented with 10% fetal calf serum (FCS) and 1% glutamine. Cells were maintained at 37 °C in a humidified atmosphere containing 5% CO2. Cell growth inhibition was determined by an MTS assay according to the manufacturer’s instructions (Promega, Madison, WI, USA). Briefly, the cells were seeded in 96-well plates (2.5 × 10^3 cells/well) containing 100 μL of growth medium. After 24 h of culture, the cells were treated with the tested compounds at 10 different final concentrations. After incubation for 72 h, 20 µL of Cell Titer 96®AQueous. One Solution Reagent was added for 2 h before recording absorbance at 490nm with a spectrophotometric plate reader. The concentration–response curves were generated with Graph Prism software and the 50% inhibition concentration values (IC50) were calculated from polynomial curves (four or five-parameter logistic equations).

Another assay has as its system SKOV3 cells. As to the kind of experiment: MTS cell growth inhibition assay, SKOV3. It is filed as cell-based, human. To be noted: for IC50: Homo sapiens, SK-OV-3, SKOV3, 72 h of exposure, read-out: IC50 antiproliferative activity SKOV3; for Selectivity index (SI) MRC5/SKOV3: ratio of IC50 MRC5/IC50 SKOV3. As for the experimental part:
(§2) Moreover, in order to evaluate the safety index, their effect on the proliferation of human lung fibroblasts (MCR5) as a normal cell line was also studied.
as §1

The next assay concerns U87-MG cells. Kind of assay: MTS cell growth inhibition assay, U87-MG. It is filed as cell-based, human. To be noted: for IC50: Homo sapiens, U-87 MG, U87-MG, 72 h of exposure, read-out: IC50 antiproliferative activity U87-MG; for Selectivity index (SI) MRC5/U87-MG: ratio of IC50 MRC5/IC50 U87-MG. As for the experimental part:
as §2
(§3) All cancer cell lines (HCT116, A549, MCF7, PC3, U87-MG, SKOV3, and MRC5) were obtained from the European Collection of Cell Culture (ECACC, Salisbury, UK) or from the American Type Culture Collection (Rockville, MD, USA) and were cultured according to the supplier’s instructions. […] U87-MG glioblastoma and human MRC-5 cells were grown in Gibco medium DMEM supplemented with 10% fetal calf serum (FCS) and 1% glutamine. Cells were maintained at 37 °C in a humidified atmosphere containing 5% CO2. Cell growth inhibition was determined by an MTS assay according to the manufacturer’s instructions (Promega, Madison, WI, USA). Briefly, the cells were seeded in 96-well plates (2.5 × 10^3 cells/well) containing 100 μL of growth medium. After 24 h of culture, the cells were treated with the tested compounds at 10 different final concentrations. After incubation for 72 h, 20 µL of Cell Titer 96®AQueous. One Solution Reagent was added for 2 h before recording absorbance at 490nm with a spectrophotometric plate reader.

Another assay relates to MRC5 cells. As to the kind of experiment: MTS cell growth inhibition assay, normal cell line MRC5. The class given is cell-based. The conditions noted are these: MRC5 normal human lung fibroblasts, 72 h of exposure; read-out: IC50 antiproliferative activity MRC5. The protocol: as §2, §1
The test system of a further assay is A549 cells. As to the kind of experiment: MTS cell growth inhibition assay, A549. It is filed as cell-based, human. The conditions noted are these: for IC50: Homo sapiens, A549, 72 h of exposure, read-out: IC50 antiproliferative activity A549; for Selectivity index (SI) MRC5/A549: ratio of IC50 MRC5/IC50 A549. As for the experimental part:
as §2, §3

The next assay deals with PC3 cells. As to the kind of experiment: MTS cell growth inhibition assay, PC3. The class given is cell-based, human. To be noted: for IC50: Homo sapiens, PC-3, PC3, 72 h of exposure, read-out: IC50 antiproliferative activity PC3; for Selectivity index (SI) MRC5/PC3: ratio of IC50 MRC5/IC50 PC3. The protocol: as §2, §1
In a further assay the test system is HCT116 cells. As to the kind of experiment: MTS cell growth inhibition assay, HCT116. The class given is cell-based, human. The conditions noted are these: for IC50: Homo sapiens, HCT-116, HCT116, 72 h of exposure, read-out: IC50 antiproliferative activity HCT116; for Selectivity index (SI) MRC5/HCT116: ratio of IC50 MRC5/IC50 HCT116. As for the experimental part: as §2, §3

The next assay concerns MCF7 cells. As to the kind of experiment: MTS cell growth inhibition assay, MCF7. To be noted: for IC50: Homo sapiens, MCF7, 72 h of exposure, read-out: IC50 antiproliferative activity MCF7; for Selectivity index (SI) MRC5/MCF7: ratio of IC50 MRC5/IC50 MCF7. The class given is cell-based, human. As for the experimental part:
as §2, §3

As a reminder, the IC50 is the concentration that inhibits the measured activity by half. `C=C(CC)C(=O)c1ccc(OCC(=O)O)cc1O` [Compound 6, 2-(3-Hydroxy-4-(2-methylenebutanoyl)phenoxy)acetic acid]: the 50% inhibitory concentration (IC50) with HL60 cells (HL60 leukemia cells, 72 h, MTS) is more than 10000 nM.

Turning to `C=C(CC)C(=O)c1ccc(OCC(=O)NCCCC)cc1O` [Compound 7, N-Butyl-2-(3-hydroxy-4-(2-methylenebutanoyl)phenoxy)acetamide], the half-inhibitory concentration (IC50) stood at 1510 ± 363 nM with SKOV3 cells; 1610 ± 355 nM with U87-MG cells; 850 ± 110 nM with MRC5 cells; 1700 ± 520 nM in the assay on HL60 cells (HL60 leukemia cells, 72 h, MTS); 285 ± 67.8 nM with A549 cells; 485 ± 20.9 nM in the assay with PC3 cells. For the same compound, the IC50 with HCT116 cells was 920 ± 20 nM; in the assay on MCF7 cells, 528 ± 16.9 nM. Further, in the assay on SKOV3 cells, the “Selectivity index (SI) MRC5/SKOV3” value came out at 0.56. Besides, the “Selectivity index (SI) MRC5/U87-MG” value with U87-MG cells stood at 0.52. Moreover, the “Selectivity index (SI) MRC5/HL60” value in the assay with HL60 cells was determined as 0.50. For the same compound, in the assay with A549 cells, the “Selectivity index (SI) MRC5/A549” value was 2.98. In addition, the “Selectivity index (SI) MRC5/PC3” value in the assay with PC3 cells was determined as 1.75. Moreover, in the assay with HCT116 cells, the “Selectivity index (SI) MRC5/HCT116” value turned out to be 0.93. For the same compound, in the assay with MCF7 cells, the “Selectivity index (SI) MRC5/MCF7” value is reported as 1.60.

As for `C#CCOc1ccc(C(=O)C(=C)CC)c(O)c1` [Compound 8, 1-(2-Hydroxy-4-(prop-2-yn-1-yloxy)phenyl)-2-methylenebutan-1-one], the IC50 in the assay on SKOV3 cells worked out at 138 ± 53.8 nM; with U87-MG cells it was 369 ± 50.1 nM; in the assay with MRC5 cells, 350 ± 40 nM; in the assay on HL60 cells (HL60 leukemia cells, 72 h, MTS), 15 ± 6 nM; with A549 cells it was 41.2 ± 1.88 nM; in the assay on PC3 cells, 68.7 ± 3.7 nM. The results for the IC50 in the assay on HCT116 cells and with MCF7 cells were 1260 ± 80 nM and 61.5 ± 0.9 nM, respectively. Further, in the assay with SKOV3 cells, the “Selectivity index (SI) MRC5/SKOV3” value is reported as 2.53. For the same compound, in the assay with U87-MG cells, the “Selectivity index (SI) MRC5/U87-MG” value is listed as 0.94. In addition, the “Selectivity index (SI) MRC5/HL60” value in the assay with HL60 cells is on record as 23.33. For the same compound, in the assay on A549 cells, the “Selectivity index (SI) MRC5/A549” value is recorded as 8.49. The “Selectivity index (SI) MRC5/PC3” value with PC3 cells was determined as 5.09. In addition, the “Selectivity index (SI) MRC5/HCT116” value with HCT116 cells turned out to be 0.27. Moreover, the “Selectivity index (SI) MRC5/MCF7” value in the assay on MCF7 cells came to 5.69.

Take `C=C(CC)C(=O)c1ccc(OCC(=O)NCCCC)c(Cl)c1Cl` [Compound 9, N-Butyl-2-(2,3-dichloro-4-(2-methylenebutanoyl)phenoxy)acetamide]: the “IC50 antiproliferative activity against HL60” value with HL60 cells (HL60 leukemia cells, 72 h, MTS) was “inactive”.

With `C#CCOc1ccc(C(=O)C(=C)CC)c(Cl)c1Cl` [Compound 10], the half-maximal inhibitory concentration (IC50) with HL60 cells (HL60 leukemia cells, 72 h, MTS) stood at 580 ± 40 nM.

For `COc1cccc2c1C(=O)c1c(O)c3c(c(O)c1C2=O)C[C@@](O)(C(=O)CO)C[C@@H]3O[C@H]1C[C@H](N)[C@H](O)[C@H](C)O1` [Doxorubicin, doxorubicin, reference compound], the half-maximal inhibitory concentration (IC50) came out at 99.6 ± 2.34 nM with U87-MG cells; 39.9 ± 1.22 nM with MRC5 cells; 56.6 ± 0.84 nM in the assay with A549 cells; 2.09 ± 0.03 nM in the assay on PC3 cells; 90 ± 3 nM in the assay with HCT116 cells; 120 ± 9 nM in the assay with MCF7 cells.
